In PubChem BioAssay AID248 (DTP/NCI, 2004):
Several values for one entry are separate records, joined by “and”; a condition that tells them apart may be missing. Equal entries are not always repeated. Toxic doses and inconclusive results are not listed. Rule as the data show it: active = T/C of 150% or more; inactive = T/C below 125%.

System: L1210 leukemia ip in BDF1 mice, survival T/C
Experiment: NCI In Vivo Anticancer Drug Screen. Data for tumor model L1210 Leukemia (intraperitoneal) in B6D2F1 (BDF1) mice
Conditions: endpoint: mean survival time, higher = longer survival
How it was run: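 Transplanted-tumor mice were given test agent; controls received vehicle only. Survival readings from the two groups were divided (treated over control).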

[1] = dose: 100.0 mg/kg/injection, schedule: Q01DX001 (ip), vehicle: saline
[2] = dose: 200.0 mg/kg/injection, schedule: Q01DX001 (ip), vehicle: saline
[3] = dose: 400.0 mg/kg/injection, schedule: Q01DX001 (ip), vehicle: saline
[4] = dose: 100.0 mg/kg/injection, schedule: Q04DX003 (ip), vehicle: saline with Tween-80
[5] = dose: 200.0 mg/kg/injection, schedule: Q01DX009 (ip), vehicle: saline with Tween-80
[6] = dose: 200.0 mg/kg/injection, schedule: Q04DX003 (ip), vehicle: saline with Tween-80
[7] = dose: 400.0 mg/kg/injection, schedule: Q01DX009 (ip), vehicle: saline with Tween-80
[8] = dose: 400.0 mg/kg/injection, schedule: Q04DX003 (ip), vehicle: saline with Tween-80
[9] = dose: 100.0 mg/kg/injection, schedule: Q01DX009 (ip), vehicle: Klucel (hydroxypropylcellulose) (HPC)
[10] = dose: 200.0 mg/kg/injection, schedule: Q01DX009 (ip), vehicle: Klucel (hydroxypropylcellulose) (HPC)

Measured: T/C

CCOC(=O)CCCN(c1ccccc1)S(=O)(=O)c1ccc(C)cc1
inactive: dose: 100.0 mg/kg/injection, schedule: Q01DX001 (ip), vehicle: carboxymethylcellulose (CMC) 93 % of control | dose: 200.0 mg/kg/injection, schedule: Q01DX001 (ip), vehicle: carboxymethylcellulose (CMC) 96 % of control | dose: 400.0 mg/kg/injection, schedule: Q01DX001 (ip), vehicle: carboxymethylcellulose (CMC) 107 % of control

CCN(CC)C(=O)c1cccc(N)c1
inactive: [1] 98 % of control | [2] 98 % of control | [3] 95 % of control

CC1C=CC2CC(O)C12 (stereo not given)
inactive: dose: 100.0 mg/kg/injection, schedule: Q01DX009 (ip), vehicle: saline with Tween-80 111 % of control | [4] 102 % of control | [5] 93 % of control | [6] 98 % of control | [7] 99 % of control | [8] 98 % of control

OCC1(c2ccccc2)CCCC1(CO)c1ccccc1 (stereo not given)
inactive: dose: 15.0 mg/kg/injection, schedule: Q01DX001 (ip), vehicle: carboxymethylcellulose (CMC) 95 % of control | dose: 30.0 mg/kg/injection, schedule: Q01DX001 (ip), vehicle: carboxymethylcellulose (CMC) 93 % of control | dose: 60.0 mg/kg/injection, schedule: Q01DX001 (ip), vehicle: carboxymethylcellulose (CMC) 91 % of control

O=C1NC(=O)C(CCCCCl)N1 (stereo not given)
inactive: [1] 91 % of control | [2] 87 % of control | [3] 94 % of control

N=C(N)c1cccc(NC(=O)c2ccc(C(=O)Nc3cccc(C(=N)N)c3)c([N+](=O)[O-])c2)c1
inactive: dose: 1.0 mg/kg/injection, schedule: Q01DX015 (ip), vehicle: water 96 % of control | dose: 2.0 mg/kg/injection, schedule: Q01DX015 (ip), vehicle: water 96 % of control | dose: 4.0 mg/kg/injection, schedule: Q01DX015 (ip), vehicle: water 102 % of control | dose: 8.0 mg/kg/injection, schedule: Q01DX015 (ip), vehicle: water 102 % of control and 109 % of control | dose: 16.0 mg/kg/injection, schedule: Q01DX015 (ip), vehicle: water 115 % of control

Nc1nc(N)n(Cc2ccc3c(c2)OCO3)n1
inactive: dose: 100.0 mg/kg/injection, schedule: Q01DX001 (ip), vehicle: saline with Tween-80 106 % of control | [4] 104 % of control | dose: 200.0 mg/kg/injection, schedule: Q01DX001 (ip), vehicle: saline with Tween-80 104 % of control | [5] 87 % of control | [6] 101 % of control | dose: 400.0 mg/kg/injection, schedule: Q01DX001 (ip), vehicle: saline with Tween-80 108 % of control | [7] 101 % of control | [8] 102 % of control

Cc1ccc(C)c(CNC(=O)Nc2ccccc2Cl)c1
inactive: [9] 97 % of control | [10] 101 % of control

CC(=O)C(C)(C)/C(C)=C/C(=O)O
inactive: [9] 95 % of control | dose: 100.0 mg/kg/injection, schedule: Q04DX003 (ip), vehicle: Klucel (hydroxypropylcellulose) (HPC) 100 % of control | [10] 95 % of control | dose: 200.0 mg/kg/injection, schedule: Q04DX003 (ip), vehicle: Klucel (hydroxypropylcellulose) (HPC) 100 % of control | dose: 400.0 mg/kg/injection, schedule: Q01DX009 (ip), vehicle: Klucel (hydroxypropylcellulose) (HPC) 98 % of control | dose: 400.0 mg/kg/injection, schedule: Q04DX003 (ip), vehicle: Klucel (hydroxypropylcellulose) (HPC) 97 % of control

CCOC(=O)CC(COC)C(C(=O)OCC)C(=O)OCC (stereo not given)
inactive: dose: 100.0 mg/kg/injection, schedule: Q01DX009 (ip), vehicle: other 100 % of control | dose: 100.0 mg/kg/injection, schedule: Q04DX003 (ip), vehicle: other 88 % of control | dose: 200.0 mg/kg/injection, schedule: Q01DX009 (ip), vehicle: other 100 % of control | dose: 200.0 mg/kg/injection, schedule: Q04DX003 (ip), vehicle: other 94 % of control | dose: 400.0 mg/kg/injection, schedule: Q01DX009 (ip), vehicle: other 98 % of control | dose: 400.0 mg/kg/injection, schedule: Q04DX003 (ip), vehicle: other 105 % of control
